Source: the NIST ThermoML archive (doi:10.1021/je060271a)

Settings: Liquid, Vibrating tube method

CCCCCC(=O)OCC(COC(=O)CCCCC)(COC(=O)CCCCC)COC(=O)CCCCC [pentaerythritol tetrahexanoate]
Settings | mass density [kg/m3]
323.16 K, 30799 kPa | 992.6
323.16 K, 30820 kPa | 992.6
323.16 K, 30845 kPa | 992.6
323.16 K, 30870 kPa | 992.7
323.16 K, 30895 kPa | 992.6
323.16 K, 30916 kPa | 992.5
323.16 K, 30942 kPa | 992.7
323.16 K, 30968 kPa | 992.6
323.16 K, 30994 kPa | 992.7
323.16 K, 31020 kPa | 992.9
323.16 K, 31046 kPa | 992.7
323.16 K, 31070 kPa | 992.8
323.16 K, 31096 kPa | 992.8
323.16 K, 31122 kPa | 992.8
323.16 K, 31139 kPa | 992.8
323.16 K, 31159 kPa | 992.8
323.16 K, 31180 kPa | 992.8
323.16 K, 31200 kPa | 992.8
323.16 K, 31217 kPa | 992.9
323.16 K, 31237 kPa | 992.9
323.16 K, 31258 kPa | 992.9
323.16 K, 31278 kPa | 993
323.16 K, 31295 kPa | 992.7
323.16 K, 31315 kPa | 993
323.16 K, 31335 kPa | 992.9
323.16 K, 31356 kPa | 993
323.16 K, 31378 kPa | 992.9
323.16 K, 31395 kPa | 992.9
323.16 K, 31412 kPa | 993
323.16 K, 31433 kPa | 993.1
323.16 K, 31554 kPa | 993.1
323.16 K, 31575 kPa | 993.1
323.16 K, 31592 kPa | 993.1
323.16 K, 31613 kPa | 993
323.16 K, 31635 kPa | 993
323.16 K, 31777 kPa | 993.1
323.16 K, 31798 kPa | 993.2
323.16 K, 31820 kPa | 993.2
323.16 K, 31838 kPa | 993.2
323.16 K, 31860 kPa | 993.2
323.16 K, 31882 kPa | 993.2
323.16 K, 31905 kPa | 993.3
323.16 K, 31927 kPa | 993.3
323.16 K, 31950 kPa | 993.2
323.16 K, 31973 kPa | 993.4
323.16 K, 31996 kPa | 993.3
323.16 K, 32016 kPa | 993.3
323.16 K, 32032 kPa | 993.4
323.16 K, 32048 kPa | 993.4
323.16 K, 32064 kPa | 993.3
323.16 K, 32081 kPa | 993.4
323.16 K, 32097 kPa | 993.3
323.16 K, 32114 kPa | 993.3
323.16 K, 32132 kPa | 993.4
323.16 K, 32149 kPa | 993.3
323.16 K, 32165 kPa | 993.4
323.16 K, 32183 kPa | 993.4
323.16 K, 32202 kPa | 993.5
323.16 K, 32221 kPa | 993.5
323.16 K, 32240 kPa | 993.4
323.16 K, 32260 kPa | 993.5
323.16 K, 32366 kPa | 993.4
323.16 K, 32374 kPa | 993.5
323.16 K, 32380 kPa | 993.5
323.16 K, 32383 kPa | 993.5
323.17 K, 1378.9 kPa | 973.7
323.17 K, 2060 kPa | 974
323.17 K, 2070.1 kPa | 974.2
323.17 K, 15528 kPa | 983.3
323.17 K, 15553 kPa | 983.3
323.17 K, 15582 kPa | 983.4
323.17 K, 15606 kPa | 983.4
323.17 K, 15845 kPa | 983.4
323.17 K, 15865 kPa | 983.5
323.17 K, 15889 kPa | 983.4
323.17 K, 15909 kPa | 983.5
323.17 K, 15932 kPa | 983.5
323.17 K, 15952 kPa | 983.3
323.17 K, 15976 kPa | 983.5
323.17 K, 16001 kPa | 983.4
323.17 K, 16021 kPa | 983.6
323.17 K, 16045 kPa | 983.5
323.17 K, 16069 kPa | 983.6
323.17 K, 16089 kPa | 983.6
323.17 K, 16114 kPa | 983.7
323.17 K, 16135 kPa | 983.7
323.17 K, 16160 kPa | 983.6
323.17 K, 16308 kPa | 983.8
323.17 K, 16329 kPa | 983.7
323.17 K, 16337 kPa | 983.7
323.17 K, 16338 kPa | 983.8
323.17 K, 16340 kPa | 983.8
323.17 K, 19154 kPa | 985.4
323.17 K, 19182 kPa | 985.6
323.17 K, 19210 kPa | 985.5
323.17 K, 19238 kPa | 985.5
323.17 K, 19267 kPa | 985.7
323.17 K, 19296 kPa | 985.6
323.17 K, 19320 kPa | 985.7
323.17 K, 19350 kPa | 985.6
323.17 K, 20368 kPa | 986.3
323.17 K, 20425 kPa | 986.4
323.17 K, 22257 kPa | 987.5
323.17 K, 22284 kPa | 987.5
323.17 K, 22311 kPa | 987.5
323.17 K, 22338 kPa | 987.6
323.17 K, 22361 kPa | 987.6
323.17 K, 22388 kPa | 987.5
323.17 K, 22416 kPa | 987.7
323.17 K, 22443 kPa | 987.6
323.17 K, 22466 kPa | 987.7
323.17 K, 22493 kPa | 987.7
323.17 K, 22520 kPa | 987.5
323.17 K, 25533 kPa | 989.4
323.17 K, 25562 kPa | 989.5
323.17 K, 25592 kPa | 989.5
323.17 K, 25621 kPa | 989.5
323.17 K, 25651 kPa | 989.4
323.17 K, 25676 kPa | 989.5
323.17 K, 25737 kPa | 989.6
323.17 K, 25767 kPa | 989.6
323.17 K, 25792 kPa | 989.7
323.17 K, 25823 kPa | 989.7
323.17 K, 25853 kPa | 989.7
323.17 K, 25884 kPa | 989.6
323.17 K, 25909 kPa | 989.8
323.17 K, 25940 kPa | 989.8
323.17 K, 25972 kPa | 989.8
323.17 K, 26003 kPa | 989.7
323.17 K, 26033 kPa | 989.7
323.17 K, 26762 kPa | 990.3
323.17 K, 26791 kPa | 990.3
323.17 K, 26815 kPa | 990.1
323.17 K, 26845 kPa | 990.3
323.17 K, 26872 kPa | 990.3
323.17 K, 26901 kPa | 990.4
323.17 K, 26930 kPa | 990.4
323.17 K, 26959 kPa | 990.3
323.17 K, 26984 kPa | 990.3
323.17 K, 27013 kPa | 990.3
323.17 K, 27043 kPa | 990.5
323.17 K, 27073 kPa | 990.4
323.17 K, 27102 kPa | 990.4
323.17 K, 27127 kPa | 990.4
323.17 K, 27157 kPa | 990.4
